Data published in patent US10093675B2, “6,8-disubstituted-9-(heterocyclyl)purines, compositions containing these derivatives and their use in cosmetic and medicinal applications” (USTAV EXPERIMENTALNI BOTANIKY AV CR, V.V.I., priority 2014, dated 2018).

What was measured:
[1] = test system: human diploid fibroblasts (HDF cells; HDF25, HDF45, HDF80); assay: Inhibition of human cell aging: senescent cells by beta-galactosidase staining; type: cell-based; conditions: for SENESCENT CELLS (%) HDF25: human diploid fibroblasts passage 25, beta-galactosidase staining; for SENESCENT CELLS (%) HDF45: human diploid fibroblasts passage 45, beta-galactosidase staining; for SENESCENT CELLS (%) HDF80: human diploid fibroblasts passage 80, beta-galactosidase staining
How it was run: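 Cells of passages 25, 45 and 80 fixed 5 min at room temperature in 2% formaldehyde/0.2% glutaraldehyde in PBS, then incubated at 37° C with beta-galactosidase substrate. Senescent cells identified by blue staining.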

[2] = test system: excised wheat leaf tips (Triticum aestivum cv. Hereward); assay: Senescence inhibition on winter wheat leaf segments (retention of chlorophyll); type: in vivo; conditions: 10^−4 mol/L; 96 hours in the dark; activity of kinetin set at 100%
How it was run: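 First-leaf tips from 7-day-old wheat seedlings stood with their bases in test solution for 96 h in the dark at 25° C. Chlorophyll was then extracted in hot 80% ethanol and read at 665 nm. Activity at each compound's best concentration is relative to 10^−4 M kinetin (100%), as means of five replicates.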

[3] = test system: detached leaves of Triticum aestivum cv. Hereward; assay: Membrane lipid peroxidation (MDA, TBA method) in detached wheat leaves during dark senescence; type: in vivo; conditions: four days in the dark, Control 18.9 (±2.2)
How it was run: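 Leaf tips from 7-day wheat seedlings were kept with compound or kinetin for four days in the dark. 100 mg tissue was extracted in 80% methanol and heated 30 min at 95 °C with 0.5% TBA/0.1% TCA. MDA came from A532 minus A600, using 155 mM^−1cm^−1.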

[4] = Radical scavenging activity determined by ORAC (Oxygen Radical Absorbance Capacity); type: biochemical; conditions: Mean ± SD (n = 3); net area under the curve relative to trolox, equimolar basis
Protocol: The ability of compounds to scavenge free radicals in vitro was determined by Oxygen Radical Absorbance Capacity (ORAC) method. Fluorescein (100 μL, […]) and 25 μL of compound solution were added into each working well in a 96-well microplate preincubated at 37° C. Thereafter, 25 μL of 250 mM AAPH was quickly added, microplate was shaken for 5 s and the fluorescence (Ex. 485 nm, Em. 510 nm) was read every 3 min over 90 min by using microplate reader Infinite 200 (TECAN, Switzerland). The net area under the curve was used to express antioxidant activity relative to trolox which was used as a standard.

## C/C(=C\CNc1ncnc2c1nc(Br)n2C1CCCCO1)CO (stereo not shown) [Compound 24, (E)-8-Bromo-6-(4-hydroxy-3-methylbut-2-en-1-ylamino)-9-(tetrahydropyran-2-yl)-9H-purine]
[1]
  SENESCENT CELLS (%) HDF25: 3%
  SENESCENT CELLS (%) HDF45: 5%
  SENESCENT CELLS (%) HDF80: 21%
[2]
  Activity (%) (s.d.), retention of chlorophyll: 123 (±6) %
[3]
  MDA (nmol/g FW): 11.4 (±0.9) nmol/g FW

## Fc1cccc(CNc2ncnc3c2nc(Br)n3C2CCCCO2)c1 (stereo not shown) [Compound 26]
[1]
  SENESCENT CELLS (%) HDF25: 2%
  SENESCENT CELLS (%) HDF45: 5%
  SENESCENT CELLS (%) HDF80: 19%
[2]
  Activity (%) (s.d.), retention of chlorophyll: 117 (±5) %

## Fc1ccc(CNc2ncnc3c2nc(Br)n3C2CCCCO2)cc1F (stereo not shown) [Compound 27]
[1]
  SENESCENT CELLS (%) HDF25: 2%
  SENESCENT CELLS (%) HDF45: 4%
  SENESCENT CELLS (%) HDF80: 21%
[2]
  Activity (%) (s.d.), retention of chlorophyll: 124 (±4) %

## C/C(=C\CNc1ncnc2c1nc(Cl)n2C1CCCO1)CO (stereo not shown) [Compound 64]
[1]
  SENESCENT CELLS (%) HDF25: 3%
  SENESCENT CELLS (%) HDF45: 4%
  SENESCENT CELLS (%) HDF80: 8%
[2]
  Activity (%) (s.d.), retention of chlorophyll: 123 (±4) %

## COc1cccc(CNc2ncnc3c2nc(Cl)n3C2CCCO2)c1 (stereo not shown) [Compound 69]
[1]
  SENESCENT CELLS (%) HDF25: 3%
  SENESCENT CELLS (%) HDF45: 4%
  SENESCENT CELLS (%) HDF80: 14%
[2]
  Activity (%) (s.d.), retention of chlorophyll: 115 (±4) %

## COc1nc2c(NCc3ccco3)ncnc2n1C1CCCCO1 (stereo not shown) [Compound 124, 6-Furfurylamino-8-methoxy-9-(tetrahydropyran-2-yl)-9H-purine]
[4]
  ORAC (compound/trolox ratio): 30.1 ± 3.1
[3]
  MDA (nmol/g FW): 10.3 (±0.7) nmol/g FW

## CSc1nc2c(NCc3ccco3)ncnc2n1C1CCCCO1 (stereo not shown) [Compound 145, 6-Furfurylamino-8-methylsulfanyl-9-(tetrahydropyran-2-yl)-9H-purine]
[4]
  ORAC (compound/trolox ratio): 1.3 ± 0.1
[3]
  MDA (nmol/g FW): 9.6 (±0.8) nmol/g FW
